According to US4511724A, “5-(Pyrrol-2-oyl)-1,2-dihydro-3H-pyrrolo [1,2-a]pyrrole derivatives as anti-inflammatory and analgesic agents” (Merck & Co., Inc., priority 1982, dated 1985):

Assays:
[1] = in vivo; set-up: species or system Rats (Sprague-Dawley); details: rat, po
Description: The GHLF test is conducted according to the following procedure:
Rats (Sprague-Dawley, Males, 120-180 gm) were fasted overnight and dosed orally with drug suspended in 0.5% methylcellulose. The drug concentration was adjusted so that each animal received 1.0 ml/100 gm body weight. Four hours later the animals were killed by asphixiation in carbon dioxide, the stomachs removed, cut open and everted. The mucosal lining was washed and examined under 3X magnification. The lesions are indentified as perforations of the gastric mucosa many of which perforate right through the wall of the stomach.
The results are expressed in two ways, the average number of lesions per stomach, and the number of animals in the group showing at least one lesion.

[2] = system: phenylbenzquinone (PBQ) writhing; assay: Inhibition of phenylbenzquinone (PBQ) writhing in mice; assay type: in vivo, mice (C.B.L., CD1); details: Mus musculus, oral, PBQ 2.0 mg/kg i.p.
Description: b. Inhibition of phenylbenzquinone (PBQ) writhing in mice:
Groups of 10 male mice (C.B.L., CD1, 18-22 grams) were food deprived overnight prior to the experiments. Test substances, suspended or dissolved in 1% methylcellulose, were administered orally (0.1 ml/10 grams body weight) at various times prior to administration of PBQ (2.0 mg/kg i.p.). The mice were placed in individual boxes and observed for 10 minutes (5 to 15 minutes after PBQ). The number of "writhes" (abdominal contraction, lordosis and hindlimb extension) for each animal was recorded and the group means and standard errors were calculated. The means obtained from drug treated groups were compared with the vehicle control mean values and percent inhibition of writhing was calculated as follows: [formula]

[3] = system: adjuvant arthritis; assay: Rat adjuvant arthritis test (adjuvant); assay type: in vivo; details: for ED50: rat adjuvant arthritis
Source text: c. Rat adjuvant arthritis test (adjuvant)
The test was done in accordance with procedures well-known in the art (see: C. A. Winter, Arthr. Rheum 9, 394-404 (1966).

Row | Structure (SMILES) | TD50 at 4 h [1] | ED50 [2] | protection from bone and cartilage destruction ([3]; at 30 mg/kg) | ED50 [3] | protection from bone and cartilage destruction ([3]; at 10 mg/kg)
1 | Cc1cc2n(c1C(=O)c1ccc(Cl)n1C)CCC2C(=O)O (centres unmarked) [RZ = Cl, R^4 = H, 5-(1-methyl-5-chloro-2-pyrroyl)-1,2-dihydro-6-methyl-3H-pyrrolo[1,2-a]pyrrole-1-carboxylic acid] | 15 mg/kg | 2.1 mg/kg |  |  | 
2 | CCOC(=O)C1CCn2c1cc(C)c2C(=O)c1cccn1C (centres unmarked) [Prior Art Compound, reference compound] | 10 mg/kg | 1 mg/kg | No protection | 30 mg/kg | 
3 | CCOC(=O)C1CCn2c1cc(C)c2C(=O)c1ccc(SC)n1C (centres unmarked) [RZ = CH3 S, R^4 = C2 H5, ethyl 5-(1-methyl-5-methylthio-2-pyrroyl)-1,2-dihydro-6-methyl-3H-pyrrolo-[1,2-a]pyrrole-1-carboxylate] | 90 mg/kg | 0.17 mg/kg |  | 7.5 mg/kg | Protection
4 | CSc1ccc(C(=O)c2c(C)cc3n2CCC3C(=O)O)n1C (centres unmarked) [RZ = CH3 S, R^4 = H, 5-(1-methyl-5-methylthio-2-pyrroyl)-1,2-dihydro-6-methyl-3H-pyrrolo-[1,2-a]pyrrole-1-carboxylic acid] | 15 mg/kg |  |  |  | 
